Tested on: adjuvant-induced arthritis in rats
Test: adjuvant-induced arthritis in rats, per cent inhibition of paw swelling
Assay type: in vivo, rat
Conditions: 0.5 mg/kg s.c. daily for sixteen days, male rats
Source text: In using the compounds of the invention to produce antiinflammatory effects in warm-blooded animals, they may be administered subcutaneously. The particular dosage to obtain the antiinflammatory effect will vary with the particular compound employed and the degree of antiinflammatory response desired. The antiinflammatory response produced upon subcutaneous administration can be observed by the method described by Newbould, B. B. in Brit. J. Pharm. Chemoth., 21, 127 (1963) and Rosenthale, M. E., and Nagra, C. L. in Proc. Soc. Exp. Biol. and Med., 125, 149 (1967). In this procedure, adjuvant-induced arthritis is induced in rats by injection of dead mycobacteria into the hind footpad. The test compound is administered subcutaneously daily for sixteen consecutive days beginning with the day of injection. The injected foot swells rapidly during the first 4 to 6 days. Thereafter, the swelling subsides until the 8th day, and then it resumes. About 4 to 10 days after injection, the other hind paw (un-injected) becomes swollen and other inflammatory nodules may be found in the ear and tail. The swelling of the injected paw at day 4 is taken as an indication of an acute inflammatory response. The swelling of the same paw at day 16 is taken as a delayed inflammatory response. The swelling of the other hind paw at day 16 is taken as a delayed hypersensitivity reaction. Active antiinflammatory compounds reduce the swelling in either the acute and/or the delayed phases. […] The percent protection against swelling, as compared to non-treated controls, is calculated and is used as a measure of antiinflammatory activity.
Male rats are randomly dispersed into groups. […] On day 4, the volume of the injected (right) foot is measured by means of a mercury plethysmograph. On day 16, the volumes of both the injected, right foot and the left hind foot are measured. The ability of the test compound to protect against acute and delayed swelling is measured by calculating the per cent decrease in volume of the test animals as compared to controls. […]

## CCCCCC(C)(O)/C=C/[C@H]1[C@H](C#N)CC(O)[C@@H]1CCCCCCC(=O)O (stereo partly drawn) [3α-cyano-5(RS)-hydroxy-2β-[(3RS)-3-hydroxy-3-methyl-trans-1-octenyl]-1α-cyclopentaneheptanoic acid]
Injected right paw, day 4 (acute)
  % Inhibition of Swelling, Day 4, Rt. Paw: 25%
Injected right paw, day 16 (delayed)
  % Inhibition of Swelling, Day 16, Rt. Paw: 31%
un-injected left paw, day 16 (delayed hypersensitivity)
  % Inhibition of Swelling, Day 16, Left Paw: 35%
